# Source: US7348178B1, “Recombinant adenoviral vector system” (priority 1994, dated 2008)
# Entries after “also recorded” stand apart in the source; their conditions may differ.
# Tests used:
# Format in all cases: cell-based, human
# [1] = test system: wild type Ad-infected 293 cells; assay: [35S]methionine labeling, SDS-PAGE: Ad shutoff of cell protein synthesis
# Protocol: FIG. 7. […] Uninfected and wild type Ad-infected 293 cells were labeled with [^35S]methionine at 24 h post infection and duplicate plates were treated with 10 mM 2AP, added 1 to 2 h after infection. Equal amounts of protein from labeled extracts were analyzed by SDS-polyacrylamide gel electrophoresis and fluorographed. Ad late polypeptides correspond to proteins II, III, IV, V, pIV, pVIII, pVI, and IX.
# Cells were labeled with [^35S]methionine for 1 to 2 h by using 50 μCi of trans[^35S]methionine (ICN) per ml in DMEM lacking methionine and supplemented with 2% calf serum. Cell extracts were prepared by sonication of washed cells in 10 mM KC1-10 mM Tris (pH 7.4)−1 mM EDTA at 4° C. and cleared of debris by centrifugation at 10,000 rpm equal amounts of protein were analyzed in sodium dodecyl sulfate (SDS)-polyacrylamide gels. Gels were fluorographed and quantitated by densitometry.
# 293 cells were treated with 2AP for the duration of infection, starting shortly after the addition of virus. Duplicate plates of cells were then labeled with [^35S]methionine, and extracts were analyzed by SDS-polyacrylamide gel electrophoresis (FIG. 7) or photographed at various times after infection for evidence of CPE (see FIG. 5).
# [2] = test system: cytokeratin network of 293 cells infected with Ad2 ts1; assay: Indirect immunofluorescence of keratin K18 network in Ad2 ts1-infected 293 cells; details: Ad ts1 infection at 39.5° C. plus 2AP, fixed 22 h post infection
# Protocol: FIG. 6. […] 293 cells were infected with Ad2 ts1 at 4,000 particles per cell, a 25 plaque forming unit (PFU) per cell equivalent, given the high particle/PFU ratio for this mutant, in the presence or absence of 2AP at 32° C. or 39.5° C. […] Cells were fixed and processed for indirect immunofluorescence, using a keratin K18-specific antibody. Cells infected at 32° C. were fixed at 40 h post infection, cells infected at 39.5° C. were fixed at 22 h post infection. By preventing Ad viral proteolysis of keratin K18, viral induced CPE and early cell lysis can be controlled.
# Cells were grown on coverslips, fixed with paraformaldehyde, and permeabilized with Triton X-100. Mouse monoclonal antibodies directed against vimentin were purchased from Boehringer Mannheim Biochemicals. A mouse monoclonal antibody specific for keratins K18 (KS-B17.2) and K1, 5 to 8, 10, 11, and 18 (no. 8.13) were from Sigma Chemical Co. Fluorescein isothiocyanate-conjugated rabbit anti-mouse antibodies were purchased from Sigma. Cells were photographed under visible or ultraviolet light using a Zeiss photomicroscope.
# Experiments were performed to test whether coupled shutoff of host protein synthesis and cleavage of cytokeratins truly correlates with development of CPE. […] Cells were infected with […] at permissive (32° C.) and restrictive (39.5° C.) temperatures. […]
# [3] = test system: wild type Ad-infected 293 cells; assay: Ad-induced CPE in infected 293 cells, photographed; details: wild type Ad 50 PFU per cell, 20 mM 2AP added 2 h post infection, 24 and 48 h
# Protocol: FIG. 5. Prevention of adenovirus induced CPE and facilitated cell lysis or loss of metabolic function during expression of late viral genes. Cells were infected at 50 PFU per cell with wild type Ad, and 20 mM 2-aminopurine (2AP) was added to duplicate plates 2 h post infection for up to 48 h. Cells were photographed at 24 and 48 h. […] Late Ad polypeptides can therefore be expressed in this system for the duration of several days without facilitating cell lysis and CPE that would limit their expression.
# Ad 300 is a wild type strain 5 isolate (H5wl300) originally purified by H. Ginsberg is available through the ATCC. Ad2 ts1 is described in Chen et al., 1993, J. Virol. 67:3507-3514. 293 cells are human embryonic kidney cell line that express the E1 region of Ad5 (Graham et al., 1977, J. Gen. Virol. 36:59-72). 293 and HeLa cells were cultured in Dulbecco's modified Eagle's medium (DMEM) containing 10% calf serum. Virus stocks were grown and titers were determined on 293 cells. RD (human rhabdosarcoma) cells were obtained from the American Type Culture Collection and grown in DMEM containing 15% fetal bovine serum. 2AP was prepared and used as previously described (Huang & Schneider, 1990, PNAS USA 87:7115-7119). Infections of cells with viruses were typically carried out for 1 h with 50 PFU per cell unless otherwise noted. […]
# uninfected 293 cells = assay: Drug cytotoxicity in uninfected 293 cells; details: 20 mM 2AP, 48 h posttreatment
smiles,measurement,setting,value
"Nc1ncc2[nH]cnc2n1 [2AP, 2-aminopurine]",shutoff of cell protein synthesis / translation,"[1]; 10 mM 2AP added 1 to 2 h after infection, labeled 24 h post infection",prevents the shutoff of translation of cellular and early Ad mRNAs; also recorded: prevent Ad shutoff of cell protein synthesis
same,levels of cellular polypeptide synthesis and of Ad mRNAs lacking the tripartite leader,[1]; 2AP-treated infected 293 cells,significantly elevated
same,keratin network integrity,[2],remarkably well preserved
same,Ad-induced CPE,[3],largely prevented detectable CPE; also recorded: significantly reduced cytopathic effect; also recorded: only slight CPE
same,cytotoxicity,uninfected 293 cells,little detectable cytotoxicity
